Test results as given in patent US20120157419A1, “METHODS AND COMPOSITIONS FOR TREATING ALZHEIMER'S DISEASE” (priority 2009, published 2012).

Columns and labels:
[1] = test system: human astrocyte cells (ccf-sttg1 cell line); assay: Cholesterol efflux from a human astrocyte cell line; type: cell-based; conditions: for Concentration evoking maximal cholesterol efflux / Concentration of maximal effect on cholesterol efflux: 20 hr incubation, [3H]cholesterol-loaded ccf-sttg1 cells
Protocol: Human astrocyte cells (1×10^6 cells/ml; ccf-sttg1 cell line) were incubated in 24 plates for 24-48 hours in 10% FCS (Fetal Calf Serum) in DMEM (Dulbecco's modified Eagle's Media) in a humidified 37° C. incubator in the presence of 7.5% CO2. After the incubation time Cholesterol loading was performed by incubating the cells for 20 hr with DMEM supplemented with 30 μg/ml cholesterol, 0.5 μCi/ml of [^3H]cholesterol and 0.2% fatty-acid-free BSA (Bovine Serum Albumin). After incubation, the cells were washed four times with PBS (Phosphate Buffered Saline) containing 0.2% fatty-acid-free BSA. Cells were then incubated for 20 hr in a humidified incubator at 37° C. in the presence of 10% CO2, with or without apolipoproteins (ApoE) or FABACs (Aramchol or Steamchol) at several concentrations. The medium was collected and centrifuged at 12000 g for 5 min to remove cellular debris. The aliquots of the supernatant were taken to count the effluxed [^3H]cholesterol. The remaining cell-associated [^3H]cholesterol was determined after extraction for at least 30 min with propan-2-ol. Efflux was determined in the presence, or absence, of apolipoproteins or FABACs. FABACs were dissolved in ethanol and added to the medium at the concentrations indicated. The amount of [^3H]cholesterol in the medium and cellular extract was quantified by liquid-scintillation counting. The radioactivity released into the medium was expressed as the fraction of the total radioactive cholesterol that was present in the supernatant of each well. The percentage efflux was calculated by dividing the radioactive counts in the efflux medium by the sum of the counts in the medium and cell extract.
Astrocyte brain cells (ccf-sttg1 cell line) were maintained under the same conditions as above (Example 3) and the effect of the 2 physiological stimulants ApoE3 and ApoE4 was tested. […] FABACs evoked a maximal cholesterol efflux at the concentrations of 2 microgram/ml (Steamchol) and 5 microgram/ml (Aramchol) while the apolipoproteins reached a maximal effect at the concentration of 10 microgram/ml. Furthermore, at the above concentrations, the % of cell cholesterol removed into the medium was about 25% higher with the FABACs as compared to the apolipoproteins. Note that the control efflux induced by the medium only is equal in both sets of experiments. The efflux at concentrations of 20 microgram/ml is problematic, since cell damage occurs at this concentration.

[2] = 14C-Aramchol radioactivity in the brain of rats after oral administration; type: in vivo, male Wistar rats; conditions: for Radioactivity in brain tissues: rat brain homogenate
Protocol: Male Wistar rats weighing 200-250 gm received a single gavage administration of ^14C-labeled-Aramchol (suspended in 0.3 ml saline), at a target dose level of 16 μCi/ml (40 μCi/kg). Aramchol is also known as “3beta-arachidyl amido, 7α,12α-dihydroxy-5-beta-cholan-24-oic acid” or “C-20 FABAC,” an amide conjugate (at position 3 of the bile acid) of arachidic and cholic acids. Groups of 3 animals were sacrificed following gavage, using ketamine anesthesia, at 3, 12, 24 or 72 hours.
Brain tissue samples were excised, homogenized in ice-cold 5M guanidine thiocyanate/HCl, pH 8, and rotated at room temperature for 4 h. Homogenates were stored at −80° C. Brain homogenates were diluted and centrifuged, and the ^14C-label was detected by mixing samples with scintillation fluid and reading in a liquid scintillation counter.

[3] = Aramchol plasma levels after single oral ascending doses in normal human volunteers; type: in vivo
Protocol: To 200 μL of each plasma sample, calibrator, and QC sample were added 20 μL of 2.5 μg/mL internal standard solution in 1:1 methanol:water followed by 50 μl, of 5% acetic acid and 2 mL of methyltertbutylether. The samples were mixed on a rotating shaker for 5 minutes and centrifuged. After centrifugation, the aqueous layer of the samples was frozen and the upper (organic) layer was transferred to evaporation tubes and evaporated to dryness under a gentle stream of N2 at ˜40° C. The samples were then reconstituted in 200 μL of 5:4:1 methanol:acetonitrile:20 mM ammonium acetate, mixed, and centrifuged. 100 μL of the clear upper solution was transferred to auto-sampler vials and analyzed by UPLC-MS/MS using a Waters Acquity UPLC BEH C18, 50×2.1 mm, 1.7μ column. A sample blank (blank plasma) and reagent blank (water) were also prepared, but without internal standard added (1:1 methanol:water added instead).
Normal human volunteers (n=12) ingested Aramchol in a formulation containing sodium lauryl sulfate and carboxy methyl cellulose, in a single dose containing 30, 100, 300, or 900 mg of Aramchol. Blood was sampled at 0, 1, 3, 4, 6, 9, 12, 18, 24, 36, 48, and 72 hours following ingestion. Aramchol blood levels were measured by a mass spectroscopy-based method (Goldiner et al., J Chromatogr B Analyt Technol Biomed Life Sci 2003; 795: 35-40). Aramchol plasma levels were measurable at all doses and were dose-proportional.

| Radioactivity in brain tissues ([2]; 3 hr after single gavage of 14C-labeled Aramchol (40 μCi/kg)) [cpm/mg tissue] | Radioactivity in brain tissues ([2]; 12 hr after single gavage of 14C-labeled Aramchol (40 μCi/kg)) [cpm/mg/tissue] | Time at which brain radioactivity disappeared ([2]; single gavage, rats) [h] | Time of peak radioactivity in brain ([2]; single gavage, rats) [h] | Time radioactivity first detected in brain ([2]; single gavage, rats) [h] | Aramchol plasma level at 24 hr ([3]; 24 hr after a single ingestion, human) | Aramchol plasma level at 36 hr ([3]; 36 hr after a single ingestion, human) | Time blood levels remain high ([3]; after a single administration, humans) | Aramchol plasma levels versus dose ([3]; single oral dose 30-900 mg, human plasma) | Structure (SMILES) | Concentration evoking maximal cholesterol efflux [1] [microgram/ml] | Concentration of maximal effect on cholesterol efflux [1] [µg/mL] | Potency on cholesterol efflux relative to comparator ([1]; ccf-sttg1 cells) | Cholesterol efflux at 2 μg/ml ([1]; 2 μg/ml, compared with 5-10 μg/ml) | Cholesterol efflux at 20 μg/ml ([1]; 20 μg/ml, compared with 5-10 μg/ml) | Effect on cholesterol efflux ([1]; ccf-sttg1 cells, versus medium) |
| --- | --- | --- | --- | --- | --- | --- | --- | --- | --- | --- | --- | --- | --- | --- | --- |
|  |  |  |  |  |  |  |  |  | CCCCCCCCCCCCCCCCCC(=O)N[C@H]1CC[C@@]2(C)[C@@H](C1)C[C@@H](O)[C@@H]1[C@@H]2C[C@H](O)[C@]2(C)[C@@H]([C@H](C)CCC(=O)O)CC[C@@H]12 [Steamchol, 3β-stearoylamido-7α,12α-dihydroxy-5β-cholan-24-oic acid] | 2 | 2 | higher potency than Aramchol |  |  |  |
| 0.15 | 0.32 | ~24 | 12 | 3 | high Aramchol levels | substantial levels | over 24 hours | dose-proportional | CCCCCCCCCCCCCCCCCCCC(=O)N[C@H]1CC[C@@]2(C)[C@@H](C1)C[C@@H](O)[C@@H]1[C@@H]2C[C@H](O)[C@]2(C)[C@@H]([C@H](C)CCC(=O)O)CC[C@@H]12 [Aramchol, 3β-arachidylamido-7α,12α, dihydroxy 5β-cholan-24-oic acid] | 5 | 5 to 10 |  | Lower efflux levels | decrease in cholesterol efflux | increased cholesterol efflux |
